Laboratory results from US10543217B2, “Method of treating frailty” (Organext Research B.V., priority 2009, dated 2020).

What was measured:
Assay type in all cases: cell-based
[1] = system: human skeletal muscle cells (hSkMC1); assay: Proliferation of human skeletal muscle cells, batch hSkMC1 (resazurin assay); conditions: for Effect on proliferation (FIG. 3a, in words): individual compounds and all 4 combinations, combinations P<0.001, except 100 nM nandrolone plus 100 nM P<0.05
Procedure: (§1) Two different batches of human skeletal muscle cells or satellite cells (hSkMC1—obtained from a healthy person—and hSkMC2—obtained from a healthy person) were obtained from PromoCell (Heidelberg, Germany) and cultured in flasks according to the instructions by the provider. Cells were harvested and stored in liquid nitrogen until used for the experiments. Cells were not used at passage number higher than 15. For the experiments cells were cultured at 37° C. and 5% CO2 at a density of 3,500-7,000 cells/cm2 in basal medium (PromoCell) plus the addition of 5% charcoal (Sigma-Aldrich) treated fetal bovine serum (FBS) (PAA, Germany) using 24-well plates (Costar) til about 80% confluency.
(§2) Medium and hormones were replaced on day 1, 4 and 7. Proliferation was measured using the resazurin assay (Stern-Straeter et al., 2008). Statistical analysis of the proliferation data was performed with the Student's t-test.

[2] = system: human skeletal muscle cells (hSkMC2); assay: Proliferation of human skeletal muscle cells, batch hSkMC2 (resazurin assay)
Procedure: as §1, §2

[3] = system: vitamin D receptor (VD3R) expression in human skeletal muscle cells (hSkMC2); assay: Vitamin D receptor expression by flow cytometry, hSkMC2 cells; conditions: 5 days of treatment, flow cytometry (FIG. 2)
Procedure: as §1
(§3) Androgen and vitamin D receptor staining protocols with the subsequent visualization by flow cytometry methods were derived from the publications of Krishan et al. (2000) and Folgueira et al. (2000). […] All solutions further contained Tween 20 (Sigma Aldrich) as detergent to maintain the permeabilized status of the cells throughout the entire staining experiment. The staining in non-stimulated and stimulated cells were compared by determining the intensity of the staining in the cells as well as the staining in the % of cells. […] The increase in the % of stained cells beyond the setpoint of the marker (at 1% for background staining) was determined with and without hormonal treatment.

[4] = system: vitamin D receptor expression in human skeletal muscle cells (hSkMC1); assay: Vitamin D receptor expression by flow cytometry, hSkMC1 cells; conditions: compared with hSkMC2, data not shown
Procedure: as §1, §3

C[C@]12CC[C@H]3[C@@H](CCC4=CC(=O)CC[C@@H]43)[C@@H]1CC[C@@H]2O [nandrolone]
Percentage increase (% Δ) in proliferation compared to control ([1]; 100 nM nandrolone, 8 days): 3%
Percentage increase (% Δ) in proliferation compared to control ([1]; 1000 nM nandrolone, 8 days): 1%
Effect on proliferation (FIG. 3a, in words) [1]: no effect on proliferation
Percentage increase (% Δ) in proliferation compared to control ([2]; 100 nM nandrolone, 8 days): 4%
Percentage increase (% Δ) in proliferation compared to control ([2]; 1000 nM nandrolone, 8 days): 1%
Change in number of cells with positive vitamin D receptor [3]: increases
Effect on vitamin D receptor expression [4]: less pronounced

C=C1/C(=C\C=C2/CCC[C@]3(C)[C@@H]([C@H](C)CCCC(C)(C)O)CC[C@@H]23)C[C@@H](O)C[C@@H]1O [dhvit D3, 1α,25-dihydroxyvitamin D3]
Percentage increase (% Δ) in proliferation compared to control ([1]; 10 nM dhvit D3, 8 days): 1%
Percentage increase (% Δ) in proliferation compared to control ([1]; 100 nM dhvit D3, 8 days): −5%
Effect on proliferation (FIG. 3a, in words) [1]: no effect on proliferation
Percentage increase (% Δ) in proliferation compared to control ([2]; 10 nM dhvit D3, 8 days): 1%
Percentage increase (% Δ) in proliferation compared to control ([2]; 100 nM dhvit D3, 8 days): 8%
Effect on proliferation (FIG. 3b, in words) ([2]; higher concentrations of 1α,25-dihydroxyvitamin D3, 4 combinations vs control P<0.05, except 100 nM nandrolone plus 10 nM P<0.001): an increase in proliferation
Effect on vitamin D receptor expression [4]: less pronounced
